Measured values from patent US4440943A, “Phenoxiodinin-5-ium antimicrobial compounds” (The Dow Chemical Company, priority 1982, dated 1984).
Where two headings read alike, the source gives them in different places.

How the values were obtained:
Assay type in all cases: cell-based
Staphylococcus aureus = assay: Agar dilution MIC vs Staphylococcus aureus (trypticase soy agar); settings: first screened at 500 ppm, monohydrate
Description: (§1) A tube containing 30 ml of trypticase soy agar was melted and warmed to 45° C. The test compound was added to the tube at a concentration of 0.05% (500 ppm). The mixture was stirred and poured into plates to harden. When hardened, the plates were inoculated with various aerobic and anaerobic organisms. The aerobic plates were incubated at 37° C. for 24 hours and then read for bacterial growth. The same plates were again incubated at 30° C. for an additional 48 hours at which point they were checked for yeast and fungal growth. The anaerobic plates were incubated at 37° C. in an anaerobic chamber and read at 48 hours.
(§2) After the initial readings, compounds showing sufficient activity were re-tested at various concentrations to determine the minimum inhibitory concentration (MIC) of the compounds of the invention against various bacteria and fungi.

Salmonella typhosa = assay: Agar dilution MIC vs Salmonella typhosa (trypticase soy agar)
Description: as §1, §2

Escherichia coli = assay: Agar dilution MIC vs Escherichia coli (trypticase soy agar); settings: first screened at 500 ppm
Description: as §1, §2

Proteus mirabilis = assay: Agar dilution MIC vs Proteus mirabilis (trypticase soy agar); settings: first screened at 500 ppm
Description: as §1, §2

Bacillus subtilis = assay: Agar dilution MIC vs Bacillus subtilis (trypticase soy agar); settings: first screened at 500 ppm
Description: as §1, §2

Streptococcus mutans [1] = assay: Agar dilution MIC vs Streptococcus mutans (trypticase soy agar); settings: first screened at 500 ppm, monohydrate
Description: as §1, §2

Aspergillus niger = assay: Agar dilution MIC vs Aspergillus niger (trypticase soy agar); settings: first screened at 500 ppm
Description: as §1, §2

Aspergillus fumigatus = assay: Agar dilution MIC vs Aspergillus fumigatus (trypticase soy agar); settings: first screened at 500 ppm
Description: as §1, §2

[2] = tested on: Trichophyton mentagrophytes; assay: Agar dilution MIC vs Trichophyton mentagrophytes (trypticase soy agar); settings: first screened at 500 ppm, monohydrate
Description: as §1, §2

Candida pelliculosa = assay: Agar dilution MIC vs Candida pelliculosa (trypticase soy agar); settings: first screened at 500 ppm
Description: as §1, §2

[3] = tested on: Streptococcus mutans (ATCC 10449); assay: MIC and MBC vs Streptococcus mutans, Todd Hewitt broth, standard dilution
Description: In another procedure, the minimum inhibitory concentration (MIC) and minimum bactericidal concentration (MBC) were determined in ppm for various compounds of the invention against the bacteria, Streptococcus mutans (ATCC 10449). The testing was performed using Todd Hewitt broth and standard dilution techniques.

Streptococcus mutans [4] = assay: Acid inhibition in Streptococcus mutans (Trypticase-yeast medium with sucrose, NaOH titration); settings: S. mutans, 48 hours at 37° C.
Description: In still another operation, the acid inhibiting property of these compounds was tested against the known acid producing organism, Streptococcus mutans. Test tubes containing Trypticase-yeast medium with sucrose were inoculated with S. mutans and incubated for 48 hours at 37° C. The tubes were then titrated with 0.1 N sodium hydroxide.

[5] = Streptococcus mutans ATCC 10449, Todd Hewitt broth, monohydrate

For COC(=O)c1ccc2c(c1)[I+]c1cc(C(=O)O)ccc1O2 [3(b), 3-carboxy-7-(methoxycarbonyl)-phenoxiodinin-5-ium bromide monohydrate], the “Minimum inhibitory concentration, Sa” value (Staphylococcus aureus) was 1.0 PPM, the “Minimum inhibitory concentration, St” value (Salmonella typhosa; Salmonella typhosa, first screened at 500 ppm, monohydrate) was 5 PPM and the “Minimum inhibitory concentration, Ec” value (Escherichia coli; monohydrate) was 5 PPM. For the same molecule, the “Minimum inhibitory concentration, Pm” value (Proteus mirabilis; monohydrate) was 5 PPM, the “Minimum inhibitory concentration, Bs” value (Bacillus subtilis; monohydrate) was 0.5 PPM and the “Minimum inhibitory concentration, Sm” value (Streptococcus mutans [1]) was 10 PPM. The “Minimum inhibitory concentration, An” value (Aspergillus niger) was 500 PPM, the “Minimum inhibitory concentration, Af” value (Aspergillus fumigatus; monohydrate) was 100 PPM and the “Minimum inhibitory concentration, Tm” value [2] was 100 PPM. The “Minimum inhibitory concentration, Cp” value (Candida pelliculosa) was 500 PPM, the “MBC (minimum bactericidal concentration)” value [3, 5] was 1.0 ppm and the MIC [3, 5] was 2.0 ppm. For the same molecule, the “Acid Inhibition (minimum concentration which prevented acid formation)” value (Streptococcus mutans [4]) was 1.0 ppm.

With COC(=O)c1ccc2c(c1)[I+]c1cc(C(=O)O)ccc1O2 [3(a), 3-Carboxy-7-(methoxycarbonyl)phenoxiodinin-5-ium chloride monohydrate] the “Minimum inhibitory concentration, Sa” value (Staphylococcus aureus) was 5 PPM, the MIC (Salmonella typhosa; Salmonella enterica, TYPHOSA, read-out: Minimum inhibitory concentration, St, Salmonella typhosa, first screened at 500 ppm) was 10 mg/L and the MIC (Escherichia coli; read-out: Minimum inhibitory concentration, Ec) was 10 mg/L. The MIC (Proteus mirabilis; read-out: Minimum inhibitory concentration, Pm) was 10 mg/L, the MIC (Bacillus subtilis; read-out: Minimum inhibitory concentration, Bs) was 1 mg/L and the “Minimum inhibitory concentration, Sm” value (Streptococcus mutans [1]) was 500 PPM. For the same molecule, the MIC (Aspergillus niger; read-out: Minimum inhibitory concentration, An) was 500 mg/L, the MIC (Aspergillus fumigatus; read-out: Minimum inhibitory concentration, Af) was 50 mg/L and the “Minimum inhibitory concentration, Tm” value [2] was 500 PPM. The MIC (Candida pelliculosa; Hansenula anomala, read-out: Minimum inhibitory concentration, Cp) was 500 mg/L, the MBC ([3]; Streptococcus mutans, ATCC10449, Streptococcus mutans ATCC 10449, Todd Hewitt broth, read-out: MBC (minimum bactericidal concentration)) was 2 mg/L and the MIC ([3]; Streptococcus mutans, ATCC10449, Streptococcus mutans ATCC 10449, Todd Hewitt broth, read-out: MIC) was 2 mg/L. For the same molecule, the minimal effective concentration (Streptococcus mutans [4]; Streptococcus mutans, 48 h, read-out: Acid Inhibition (minimum concentration which prevented acid formation)) was 1 µg/mL.
